These are literature values, as cited in patent publication US20230219928A1, “PREPARATION METHOD FOR AROMATIC ETHER COMPOUND” (Jiangsu Yahong Meditech Co., Ltd., priority 2020, published 2023).

The structures appear in SMILES notation.

The conditions of data set [1]: human, phase II clinical trial conducted by Jiangsu Yahong Meditech in China.
The conditions of data set [2]: background statement.

Take `O=[N+]([O-])c1ccc(O)c2ncccc12` [nitroxoline]: the biological half-life in data set [1] is reported as 1.22-1.44 hours. Also, the water solubility entry in data set [2] is on record as “very low”.
